For data set [1], the system named is T. cruzi nitroreductase enzyme (TcNTR). The data set can be described thus: Kinetic assay with Trypanosoma cruzi nitroreductase enzyme (NADH oxidation). In kind it is biochemical. The following applies: for Kobs Deriv./Kobs BZN 50 µM: 50 µM derivative. The procedure:
To determine a potential mechanism of action, nitroazole derivatives 5, 6, 8 and 9 were evaluated as substrates of the T. cruzi nitroreductase enzyme (TcNTR) and compared to BZN, the reference prodrug (Table 2). The enzymatic activity was measured by monitoring the oxidation of NADH, the first substrate of the enzyme, via spectrophotometric assays. […] At a concentration of 25 µM, derivatives 5 and 8 were metabolized at rates 2.3 and 2.6 times higher than that of BZN, respectively. At 50 µM, the compounds presented metabolism rates 1.6 and 3.0 times higher than that of BZN, respectively.
The protocols for expressing, purifying and conducting kinetic analysis with the recombinant TcNTR enzyme were adapted from the methods originally developed by Shane Wilkinson, with certain modifications.
For the kinetics assays, it was prepared a 200 μL solution which included 50 mM Tris-Base at pH 7.5, with a constant concentration of both NADH (50 μM) and the substances 5, 6, 8, 9 or BZN. Specifically, two distinct fixed concentrations (25 and 50 μM) of the substances 5, 6, 8, 9 or BZN were tested. These prepared mixtures were then incubated for 5 min at room temperature. Subsequently, the reaction was initiated by adding NTR to achieve a final concentration of 10 μg/mL. The reaction rates were monitored using a Hitachi U-2900 spectrophotometer, measuring the consumption of the primary substrate, NADH (λ = 340 nm; ε = 6.220 M^−1 cm^−1), over a 2-min interval. The resulting data curves were analyzed through linear regression using OriginPro 2016 software. To evaluate the reaction rate (Kobs) obtained from the 25 and 50 μM concentrations of each substrate, comparisons were made with the reference values for BZN. Measurement errors were calculated using the formula: Error = Z × σ/√n, where ‘Z’ denotes the critical value, ‘σ’ represents the standard deviation and ‘n’ is the number of test measurements, which were performed at least in triplicate.

For data set [2], the system named is T. cruzi (Tulahuen strain). The data set can be described thus: In vitro anti-T. cruzi evaluation in an intracellular model (trypomastigote and amastigote forms, L929 host cells, β-galactosidase readout). The data set is classed as cell-based, Trypanosoma cruzi. The note with it: for IC50: Tulahuen strain, intracellular trypomastigote and amastigote forms in L929 fibroblasts, 96 h, read-out: IC50 T. cruzi; for SI: selectivity index, L929 cells vs T. cruzi. The method, then:
Derivatives 5–10 were evaluated in vitro against T. cruzi in an intracellular model on the trypomastigote and amastigote forms of the parasite of the Tulahuen strain [20]. This model is interesting because it mimics the life cycle of the parasite, as both clinically relevant forms are present in the environment. The mammalian host cells used were fibroblasts from L929 mice.
This assay was performed as previously described by Buckner et al. (1996) using T. cruzi (Tulahuen strain), which expresses the β-galactosidase gene of Escherichia coli. Infectious trypomastigote forms were obtained by culturing fibroblast monolayers of L929 mice in RPMI-1640 medium (pH 7.2–7.4) without phenol red (Gibco BRL), containing 10% fetal bovine serum and 2 mM glutamine. For the bioassay, 4000 L929 cells in 80 µL of supplemented medium were added to each well of a 96-well microtiter plate. After overnight incubation, 40,000 trypomastigotes in 20 µL were added to the cells and incubated for 2 h. […] The medium was then replaced with compound solutions at 1.0 µg/mL in fresh medium (200 µL), and the plate was incubated for 96 h at 37 °C. After this period, 50 µL of chlorophenol D-galactopyranoside red (500 µM) in 0.5% Nonidet P40 was added to each well, and the plate was incubated for 18 h at 37 °C. After this, the absorbance was measured at 570 nm. Controls with uninfected cells and infected cells treated with benznidazole were performed in parallel. The results are expressed as the percentage of T. cruzi growth inhibition in cells tested with compost compared to infected and untreated cells. The tests were performed in triplicate.

Data set [3] is described as follows: In vitro cytotoxicity of L929 cells (AlamarBlue). In kind it is cell-based, mice. The note with it: mouse, four days. The method, then:
For this bioassay, 4000 mammalian cells in 200 µL of RPMI-1640 medium (pH 7.2–7.4) (Gibco BRL) plus 10% fetal bovine serum and 2 mM glutamine were added to each well of a 96-well microtiter plate, which was incubated for three days at 37 °C. […] After this period, 20 µL of AlamarBlue^TM was added to each well, and the plate was incubated for another 4–6 h. Then, the absorbance was measured at 570 nm. Controls with cells not treated and treated with benznidazole were performed in parallel, and triplicates were performed on the same plate. The results are expressed as the percent difference in the reduction between treated (CT) and untreated cells (UT) using the following equation:(1) 117.216Abs570 TC−80.586(Abs600 TC)/117.216Abs570 UT−80.586(Abs600 UT) × 100
(The colour change of resazurin is a common sign of viable cells or microbes.)

The subject of another data set is T. cruzi. Set-up: method as in PMID 10602737. The following applies: in vitro; read-out: IC50 against T. cruzi; cited from earlier work.
Setting [4] is: Trypanosoma cruzi, TULAHUEN, L929, 96 h.

Where two headings read alike, the source gives them in different places.

In turn, `O=C(Cn1cnc([N+](=O)[O-])n1)c1ccc(F)cc1F` [Compound 5, 1-(2,4-Difluorophenyl)-2-(3-nitro-1H-1,2,4-triazol-1-yl)ethanone] returned a melting point of 117 to 119 °C. Besides, the “Kobs Deriv./Kobs BZN 25 µM” value in data set [1] (25 µM derivative, ratio of mean Kobs to BZN) is listed as 2.3. The “consumption rate by TcNTR, times higher than that of 6” value in data set [1] (50 µM) is given as 6.6. Besides, the “Kobs Deriv./Kobs BZN 50 µM” value in data set [1] (ratio of mean Kobs to BZN) came to 1.6. Also, in data set [2] (setting [4]), the IC50 worked out at 1.8 ± 0.07 µM. In addition, the “times more potent against T. cruzi than 6” value in data set [2] (ratio of IC50 T. cruzi to 2-nitroimidazole ketone 6) is “approximately 50”. For the same compound, the SI in data set [2] is recorded as 667. Besides, in data set [3], the CC50 at 4 days was found to be 1200 ± 0.01 µM.

On to `O=C(Cn1ccnc1[N+](=O)[O-])c1ccc(F)cc1F` [Compound 6, 1-(2,4-Difluorophenyl)-2-(2-nitro-1H-imidazol-1-yl)ethanone], for which the melting point was in the range of 128 to 130 °C. Besides, in data set [1] (ratio of mean Kobs to BZN), the “Kobs Deriv./Kobs BZN 50 µM” value stood at 0.3. In data set [2] (setting [4]), the IC50 is 90.9 µM. In addition, in data set [2], the half-inhibitory concentration (IC50) stood at 91 ± 4 µM and the SI was found to be 7. This compound also gave a CC50 at 4 days in data set [3] of 629 ± 61 µM.

Turning to `O=C(Cn1cncn1)c1ccc(F)cc1F` [Compound 7, 1-(2,4-Difluorophenyl)-2-(1H-1,2,4-triazol-1-yl)ethanone], the IC50 in data set [2] (setting [4]) is more than 200 µM.

In turn, `OC(Cn1cncn1)c1ccc(F)cc1F` (centres unmarked) [Compound 10, 1-(2,4-Difluorophenyl)-2-(1H-1,2,4-triazol-1-yl)ethanol] gave a melting point of 119 to 121 °C. Moreover, in data set [2] (setting [4]), the half-inhibitory concentration (IC50) was 120 ± 90 µM. The compound further displayed an SI in data set [2] of more than 27. The same compound came in with a CC50 at 4 days in data set [3] of more than 3200 µM.

On to `CC[C@@H]([C@H](C)O)n1ncn(-c2ccc(N3CCN(c4ccc(OC[C@@H]5CO[C@@](Cn6cncn6)(c6ccc(F)cc6F)C5)cc4)CC3)cc2)c1=O` [posaconazole], for which the IC50 with T. cruzi was less than 0.001 µM.

One may read the melting point as the temperature of the solid-liquid transition. The IC50 is the concentration needed to halve the response being measured. For orientation: CC50 means the concentration that lowers cell viability or growth by half. Read a low CC50 as harm at low concentration.

These data come from PMC10672842, “Anti-Trypanosoma cruzi Activity, Mutagenicity, Hepatocytotoxicity and Nitroreductase Enzyme Evaluation of 3-Nitrotriazole, 2-Nitroimidazole and Triazole Derivatives” (Molecules, 2023).
